# Experimental data reported in patent publication US8202540B1, “Method for controlled production of ultrafine microparticles and nanoparticles” (Abbott GmbH & Co., KG, priority 1999, dated 2012).
# Tests used:
# Assay type in all cases: physicochemical
# [1] = Average particle diameter determined by light microscopy; settings: Example 14: propylene glycol, 0.2% Tween 80; 700 bar, room temperature, 30 minutes, degassed medium, nitrogen
# Source text: 10% tragacanth was dispersed in Miglyol 812 with addition of 1% Span 80 and microparticles prepared as described in example 1. The average diameter determined by light microscopy was 7.54 μm after 10 cycles at 1500 bar.
# Preparation of a Clinical Batch Under Oxygen-Poor Conditions and protective gassing: azodicarbonamide (1) was dispersed with addition of Tween 80 (0.2%) analogously to example 12 in 2 kg propylene glycol and homogenized (homogenization pressure: 700 bar, room temperature) in a cyclical process for 30 minutes with a Micron LAB 60 (APV Deutschland GmbH, Lubeck, Germany). Propylene glycol was degassed beforehand by heating. The product container was kept under nitrogen. The average diameter determined by light microscopy was 5.45 μm after 30 minutes' homogenization time.
# [2] = Particle size by laser diffractometry (LD, Coulter LS230)
# [3] = Particle size by photon correlation spectroscopy (PCS, Zetasizer 4); settings: Example 2: anhydrous glycerol, 20 cycles at 1500 bar
# Source text: The characterization of the superfine microparticle dispersions and nanoparticles was by means of laser diffractometry (LD) (Coulter LS230, Coulter Electronics, Miami, USA) and photon correlation spectroscopy (PCS) (Zetasizer 4, Malvern Instruments, Malvern, United Kingdom). Characterization parameters were the 50% (D50%), 90% (D90%) and 95% (D95%) LD diameter measured by LD. The PCS (measurement range approx. 3 nm-3 μm) gives the PCS diameter and, as a measure of the width of the distribution, the polydispersity index (PI) in the range from 0.000 (+ideal monodispersion) to 0.500 (very broad distribution), above 0.5 no further conclusions can be drawn with regard to the width of distribution.
# [4] = Example 12: 10% in PEG 400, 0.5% Tween 80, 4 cycles at 1500 bar
# [5] = Example 1: 1% drug, 0.5% Tween 80, anhydrous glycerol, 6 cycles at 1500 bar, room temperature
# [6] = Example 3: anhydrous glycerol, 10 cycles at 1500 bar
# [7] = Example 3: purely aqueous dispersion (glycerol replaced by water), 10 cycles at 1500 bar
# [8] = Example 6: 1.0% water, 4 cycles at 1500 bar
# [9] = Example 6: anhydrous (0% water), 4 cycles at 1500 bar
# [10] = Example 7: 10% water, 4 cycles at 1500 bar
# [11] = Example 7: 30% water, 4 cycles at 1500 bar
# [12] = Example 8: 50% water, 4 cycles at 1500 bar
# [13] = Example 13: 10 cycles at 1500 bar
smiles,measurement,setting,value
NC(=O)N=NC(N)=O [azodicarbonamide],average diameter determined by light microscopy,[1],5.45 μm
same,50% diameter,[2]; [4],3.0 μm
same,D90%,[2]; [4],6.2 μm
same,D95%,[2]; [4],7.2 μm
"CC1CN(c2nc(N(CCO)CC(C)(C)O)c3nc(-c4ccccc4)c(N4CC(C)OC(C)C4)nc3n2)CC(C)O1 (stereo not drawn) [drug from example 1, 1-[[2,7-bis(2,6-dimethyl-4-morpholinyl)-6-phenyl-4-pteridinyl]-(2-hydroxyethyl)-amino]-2-methyl-[cis[cis]]-propan-2-ol]",D50% LD diameter,[2]; [5],1.7 μm
same,D90% LD diameter,[2]; [5],4.5 μm
same,D95% LD diameter,[2]; [5],5.4 μm
same,D50% diameter,[2]; [6],1.3 μm
same,D90% diameter,[2]; [6],3.2 μm
same,D50% diameter,[2]; [7],0.9 μm
same,D90% diameter,[2]; [7],2.3 μm
same,D50% diameter,[2]; [8],2.1 μm
same,D90% diameter,[2]; [8],5.4 μm
same,D50% diameter,[2]; [9],1.9 μm
same,D90% diameter,[2]; [9],4.9 μm
same,D50% diameter,[2]; [10],1.7 μm
same,D90% diameter,[2]; [10],4.1 μm
same,D50% diameter,[2]; [11],1.7 μm
same,D90% diameter,[2]; [11],4.2 μm
same,D50% diameter,[2]; [12],1.5 μm
same,D90% diameter,[2]; [12],3.7 μm
same,95% diameter,"[2]; Example 13: 0% water (pure glycerol), 10 cycles at 1500 bar",3.9 μm
same,D50% across dispersion media of 0% to 100% water,[2]; [13],little change
same,"difference in 95% diameter, pure glycerol vs pure water",[2]; [13],approx. 1.1 μm
same,"difference in D95%, 2 cycles vs 10 cycles","[2]; Example 13: pure glycerol (0% water), 1500 bar",approx. 3.1 μm
same,D95%,"[2]; Example 13: pure glycerol (0% water), after 2 cycles at 1500 bar",7.0 μm
same,95% diameter,"[2]; Example 13: pure water, 10 cycles at 1500 bar",2.8 μm
same,average PCS diameter,[3],950 nm
same,polydispersity index (PI),[3],0.513
